Structures can show the parent of a compound that is named as a salt. Where two headings read alike, the source gives them in different places.
Molecular target: T1, Human FAAH (Homo sapiens, UniProt O00519)
T1 construct: The full length FAAH was subcloned into the mammalian expression vector, peDEF.neo
T1 sequence (O00519 1-579): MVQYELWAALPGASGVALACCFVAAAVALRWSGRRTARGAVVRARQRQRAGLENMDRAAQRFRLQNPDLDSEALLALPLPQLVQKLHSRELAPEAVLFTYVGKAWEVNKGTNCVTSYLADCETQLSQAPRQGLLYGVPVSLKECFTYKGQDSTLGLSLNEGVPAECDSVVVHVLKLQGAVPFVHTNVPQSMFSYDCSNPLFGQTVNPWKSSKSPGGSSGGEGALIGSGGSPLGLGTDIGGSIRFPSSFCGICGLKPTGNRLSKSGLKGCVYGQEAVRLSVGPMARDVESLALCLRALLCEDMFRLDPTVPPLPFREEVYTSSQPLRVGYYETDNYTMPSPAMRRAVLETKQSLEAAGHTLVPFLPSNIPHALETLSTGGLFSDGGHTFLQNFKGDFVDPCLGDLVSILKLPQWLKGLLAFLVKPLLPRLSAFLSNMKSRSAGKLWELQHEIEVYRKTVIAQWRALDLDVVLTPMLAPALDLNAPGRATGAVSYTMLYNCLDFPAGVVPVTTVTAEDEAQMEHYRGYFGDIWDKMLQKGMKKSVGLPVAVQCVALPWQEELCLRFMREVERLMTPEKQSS
Test: Human FAAH lysate assay (CHO cell lysate expressing FAAH, AAMCA or 3H-anandamide hydrolysis)
Type: biochemical
From the text: To assist in assay development stable cell lines for human, murine and rat full length FAAH were developed. […] The full length FAAH was subcloned into the mammalian expression vector, peDEF.neo, using XbaI and EcoRI restriction sites and used for stable cell line generation.
CHO cells expressing FAAH were used to prepare either crude cell lysate or microsome fractions. To harvest cells, tissue culture media was decanted, the monolayer washed three times with Ca^++Mg^++ free PBS and cells recovered after […] in enzyme free dissociation media (Millipore Corp, Billerica, Mass.). Cells were collected by centrifuging at 2000 rpm for 15 min. and the cell pellet re-suspended with 50 mM HEPES (pH 7.4) containing 1 mM EDTA and the protease inhibitors aprotinin (1 mg/ml) and leupeptin (100 μM). The suspension was sonicated at 4° C. and the cell lysate recovered after centrifuging at 12,000×g (14,600 rpm, SS34 rotor) for 20 min at 4° C. to form a crude pellet of cell debris, nuclei, peroxisomes, lysosomes, and mitochondria; the supernatant or cell lysate was used for FAAH enzyme assay. In some cases, microsomes fractions enriched in FAAH were prepared by centrifuging the cell lysate further at 27,000 rpm (100,000×g) in SW28 rotor for 50 minutes at 4° C. The pellet containing FAAH-enriched microsomes was re-suspend in 50 mM HEPES, (pH 7,4) 1 mM EDTA, and any remaining DNA sheared by passage of material through a 23 gauge needle and aliquots of enzyme were store at −80° C. prior to use.
Assays are performed on either cell lysate or microsome fractions prepared as described or in whole cell format employing either the fluorescent substrate AAMCA (Cayman chemical, Ann Arbor, Mich.,) or ^3H-anandamide ([ETHANOLAMINE-1-3H] American Radiolabeled Chemicals; 1 mCi/ml). The cell lysate or microsome assay is performed in Costar black wall, clear bottom plates by adding FAAH_CHO (whole cell, cell lysate or microsome) in assay buffer (50 mM Phosphate, pH 8.0, 1 mM EDTA, 200 mM KCl, 0.2% glycerol, 0.1% fatty acid free BSA) to each well, followed by either DMSO or compound and allowed to incubate at 22-25° C. for fifteen minutes. AAMCA substrate was used to achieve a final concentration of 1 μM and reaction allowed to proceed at room temperature for 1-3 hours. […] Whole cell assay is conducted with cells harvested after rinsing tissue culture flasks three times with Ca^++Mg^++ free PBS, incubating for 10 mm in Enzyme free dissociation media and centrifuging for 5 minutes at 1,000 rpm in table top centrifuge. Cells are resuspended in assay buffer at desired cell number in (4×10^4 cells/assay in 96-well format; 1×10^4 cells/assay in 384-well format) and assayed as described.
Alternatively, assays are performed using anandamide [ethanolamine 1-^3H] (specific activity of 10 Ci/mmol) diluted with cold anandamide to achieve a final assay concentration of 1 μM anandamide (˜50,000 cpm). Enzyme (CHO cell lysate, brain or liver homogenate) is incubated in assay buffer (50 mM Phosphate, pH 8.0, 1 mM EDTA, 200 mM KCl, 0.2% glycerol, 0.1% fatty acid free BSA) with inhibitor at 25° C. for 30 minutes. The reaction was terminated by addition of 2 volumes of chloroform:methanol (1:1) and mixed by vortexing. Following a centrifugation step, 2000 rpm for 10 min. at room temperature, the aqueous phase containing the released […] was recovered and quantitated by liquid scintillation as a reflection of FAAH enzyme activity.

[1] = B series, read-out: Human FAAH lysate assay: IC50
[2] = tables of the B series, read-out: hFAAH lysate IC50

| SMILES | IC50 [1] [nM] | IC50 [2] [nM] |
| --- | --- | --- |
| CN(C)C(=O)C1CC1c1ccc(-c2ncn(C)c2Sc2ccc(Cl)cn2)cc1 (stereo not drawn) [Example 1B, 2-(4-{5[(5-Chloropyridin-2yl-)thio]-1-methyl-1H-imidazol-4-yl}phenyl)-N,N-dimethylcyclopropanecarboxamide] | 1.4 | – |
| CC(C)NC(=O)C1CC1c1ccc(-c2ncn(C)c2Sc2ccc(Cl)cn2)cc1 (stereo not drawn) [Example 2B] | – | 6.3 |
| CNC(=O)C1CC1c1ccc(-c2ncn(C)c2Sc2ccc(Cl)cn2)cc1 (stereo not drawn) [Example 3B] | – | 1.4 |
| Cn1cnc(-c2ccc(C3CC3C(N)=O)cc2)c1Sc1ccc(Cl)cn1 (stereo not drawn) [Example 4B] | – | 2.6 |
| CN(C)C(=O)[C@H]1C[C@@H]1c1ccc(-c2ncn(C)c2Sc2ccc(Cl)cn2)cc1 [Example 5B, (1S,2S)-2-(4-{5-[(5-Chloropyridin-2-yl)thio]-1-methyl-1H-imidazol-4-yl}phenyl)-N,N-dimethylcyclopropanecarboxamide] | 1 | – |
| CNC(=O)[C@H]1C[C@@H]1c1ccc(-c2ncn(C)c2Sc2ccc(Cl)cn2)cc1 [Example 6B] | – | 1.1 |
| Cn1cnc(-c2ccc([C@H]3C[C@@H]3C(N)=O)cc2)c1Sc1ccc(Cl)cn1 [Example 7B] | – | 3.3 |
| CN(C)C(=O)[C@H]1C[C@@H]1c1ccc(-c2ncn(C)c2Sc2ccc(Cl)cc2)cc1 [Example 9B] | 0.3 | – |
| CN(CCF)C(=O)[C@H]1C[C@@H]1c1ccc(-c2ncn(C)c2Sc2ccc(Cl)cn2)cc1 [Example 11B, (1S,2S)-2-(4-{5-[(5-Chloropyridin-2-yl)thio]-1-methyl-1H-imidazol-4-yl}phenyl)-N-(2-fluoroethyl)-N-methylcyclopropanecarboxamide] | 3 | – |
| Cc1nc(-c2ccc([C@@H]3C[C@H]3C(=O)N(C)C)cc2)c(Sc2ccc(Cl)cn2)n1C [Example 12B, (1R,2R)-2-(4-{5-[(5-Chloropyridin-2-yl)thio]-1,2-dimethyl-1H-imidazol-4-yl}phenyl)-N,N-dimethylcyclopropanecarboxamide] | 13.6 | – |
| CN(C)C(=O)C1CC1c1ccc(-c2nc(C3CC3)n(C)c2Sc2ccc(Cl)cn2)cc1 (stereo not drawn) [Example 13B, 5-[(5-Chloropyridin-2-yl)thio]-2-cyclopropyl-4-(4-{2-[(dimethylamino)carbonyl]cyclopropyl}phenyl)-1-methyl-1H-imidazol-3-ium trifluoroacetate] | 48.3 | – |
| CN(C)C(=O)[C@H]1C[C@@H]1c1ccc(-c2ncn(CCF)c2Sc2ccc(Cl)cn2)cc1 [Example 14B, 5-[(5-Chloropyridin-2-yl)thio]-4-(4-{(1S,2S)-2-[(dimethylamino)carbonyl]cyclopropyl}phenyl)-1-(2-fluoroethyl)-1H-imidazol-3-ium trifluoroacetate] | 3.2 | – |

Next, values leading:

| IC50 [1] [nM] | IC50 [2] [nM] | SMILES |
| --- | --- | --- |
| – | 196 | Cn1cnc(-c2ccc([C@H]3C[C@@H]3C(=O)NC(C)(C)C)cc2)c1Sc1ccc(Cl)cn1 [Example 8B] |
| – | 5.8 | CNC(=O)[C@H]1C[C@@H]1c1ccc(-c2ncn(CCF)c2Sc2ccc(Cl)cn2)cc1 [Example 15B] |
| – | 12.7 | NC(=O)[C@H]1C[C@@H]1c1ccc(-c2ncn(CCF)c2Sc2ccc(Cl)cn2)cc1 [Example 16B] |
| 4.5 | – | Cn1cnc(-c2ccc([C@H]3C[C@@H]3c3n[nH]c(=O)o3)cc2)c1Sc1ccc(Cl)cn1 [Example 17B, 5-[(1S,2S)-2-(4-{5-[(5-Chloropyridin-2-yl)thio]-1-methyl-1H-imidazol-4-yl}phenyl)cyclopropyl]-1,3,4-oxadiazol-2(3H)-one] |
| 15.6 | – | COc1nnc([C@H]2C[C@@H]2c2ccc(-c3ncn(C)c3Sc3ccc(Cl)cn3)cc2)o1 [Example 18B, 5-Chloro-2-[(4-{4-[(1S,2S)-2-(5-methoxy-1,3,4-oxadiazol-2-yl)cyclopropyl]phenyl}-1-methyl-1H-imidazol-5-yl)thio]pyridine] |
| 46 | – | Cc1nnc([C@H]2C[C@@H]2c2ccc(-c3ncn(C)c3Sc3ccc(Cl)cn3)cc2)o1 [Example 19B, 5-Chloro-2-[(1-methyl-4-{4-[(1S,2S)-2-(5-methyl-1,3,4-oxadiazol-2-yl)cyclopropyl]phenyl}-1H-imidazol-5-yl)thio]pyridine] |
| 650 | – | CN(C)C(=O)[C@H]1C[C@@H]1c1ccc(-c2nc[nH]c2Sc2ccc(Cl)cn2)cc1 [Example 20B, (1S,2S)-2-(4-{5-[(5-Chloropyridin-2-yl)thio]-1H-imidazol-4-yl}phenyl)-N,N-dimethylcyclopropanecarboxamide] |
| 0.2 | – | COC(=O)[C@H]1C[C@@H]1c1ccc(-c2ncn(C)c2Sc2ccc(Cl)cn2)cc1 [Example 21B, Methyl (1S,2S)-2-(4-{5-[(5-chloropyridin-2-yl)thio]-1-methyl-1H-imidazol-4-yl}phenyl)cyclopropanecarboxylate] |
| 8.7 | – | Cn1cnc(-c2ccc([C@H]3C[C@@H]3C(C)(C)O)cc2)c1Sc1ccc(Cl)cn1 [Example 22B, 2-[(1S,2S)-2-(4-{5-[(5-Chloropyridin-2-yl)thio]-1-methyl-1H-imidazol-4-yl}phenyl)cyclopropyl]propan-2-ol] |
| 88.4 | – | Cn1cnc(-c2ccc([C@H]3C[C@@H]3CO)cc2)c1Sc1ccc(Cl)cn1 [Example 23B, [(1S,2S)-2-(4-{5-[(5-Chloropyridin-2-yl)thio]-1-methyl-1H-imidazol-4-yl}phenyl)cyclopropyl]methanol] |
| 35.5 | – | COC[C@H]1C[C@@H]1c1ccc(-c2ncn(C)c2Sc2ccc(Cl)cn2)cc1 [Example 24B, 5-Chloro-2-[(4-{4-[(1S,2S)-2-(methoxymethyl)cyclopropyl]phenyl}-1-methyl-1H-imidazol-5-yl)thio]pyridine] |
| 69.3 | – | Cn1cnc(-c2ccc([C@H]3C[C@@H]3COCCF)cc2)c1Sc1ccc(Cl)cn1 [Example 25B, 5-Chloro-2-{[4-(4-{(1S,2S)-2-[(2-fluoroethoxy)methyl]cyclopropyl}phenyl)-1-methyl-1H-imidazol-5-yl]thio}pyridine] |
| 677 | – | Cn1cnc(-c2ccc([C@H]3C[C@@H]3c3n[nH]c(=S)o3)cc2)c1Sc1ccc(Cl)cn1 [Example 31B, 5-[(1S,2S)-2-(4-{5-[(5-chloropyridin-2-yl)thio]-1-methyl-1H-imidazol-4-yl}phenyl)cyclopropyl]-1,3,4-oxadiazole-2(3H)-thione] |
| 304 | – | Cn1cnc(-c2ccc([C@H]3C[C@@H]3c3n[nH]c(=S)[nH]3)cc2)c1Sc1ccc(Cl)cn1 [Example 32B, 5-[(1S,2S)-2-(4-{5-[(5-chloropyridin-2-yl)thio]-1-methyl-1H-imidazol-4-yl}phenyl)cyclopropyl]-2,4-dihydro-3H-1,2,4-triazole-3-thione] |
| 545 | – | Cn1cnc(-c2ccc([C@H]3C[C@@H]3c3n[nH]c(=O)[nH]3)cc2)c1Sc1ccc(Cl)cn1 [Example 33B, 5-[(1S,2S)-2-(4-{5-[(5-chloropyridin-2-yl)thio]-1-methyl-1H-imidazol-4-yl}phenyl)cyclopropyl]-2,4-dihydro-3H-1,2,4-triazol-3-one] |

— patent US20130030000A1, “PHARMACEUTICAL COMPOSITIONS FOR THE TREATMENT OF PAIN AND OTHER INDICATIONS” (priority 2010, published 2013)
